Where a SMILES comes first, the peptide text is derived from it. Bridges are numbered along the chain shown (N, C = ends). [ ]: non-standard residue; d: D form. The star is where a group is joined. ξ: configuration not given here. Phe(3-CF3) = N[C@@H](Cc1cccc(C(F)(F)F)c1)C(=O)O; Ala(morpholin-4-yl) = N[C@@H](CN1CCOCC1)C(=O)O; Phe(4-COOH) = N[C@@H](Cc1ccc(C(=O)O)cc1)C(=O)O; Asp(3,3-Me2) = CC(C)(C(=O)O)[C@H](N)C(=O)O; Bip = N[C@@H](Cc1ccc(-c2ccccc2)cc1)C(=O)O; Phe(4-Br) = N[C@@H](Cc1ccc(Br)cc1)C(=O)O; Phe(3-Me) = Cc1cccc(C[C@H](N)C(=O)O)c1; 1Nal = N[C@@H](Cc1cccc2ccccc12)C(=O)O; Val(3-OH) = CC(C)(O)[C@H](N)C(=O)O; aIle = CC[C@@H](C)[C@H](N)C(=O)O; 4Pal = N[C@@H](Cc1ccncc1)C(=O)O; Cha = N[C@@H](CC1CCCCC1)C(=O)O; dCha = N[C@H](CC1CCCCC1)C(=O)O; Thr(3ξ) = CC(O)[C@H](N)C(=O)O; Carboxymethyl = O=C(O)C*; Orn = NCCC[C@H](N)C(=O)O; dDap = NC[C@@H](N)C(=O)O; Dab = NCC[C@H](N)C(=O)O; Dap = NC[C@H](N)C(=O)O

Here are results for ten compounds from patent US20250163104A1, “MACROCYCLIC IMMUNOMODULATORS” (priority 2021, published 2025).

The assay deals with T1, human PD-1 / PD-L1-Ig binding on Jurkat cell line over-expressing human PD-1 (Jurkat-PD-1) (Homo sapiens, UniProt Q15116).
T1 construct: expressed in transfected cells; host or cells: Jurkat
Kind of assay: Jurkat-PD-1 Cell Binding High-Content Screening Assay (CBA). The assay is classed as cell-based. Particulars: Jurkat-PD-1 cells, PE-labeled PD-L1-Ig 20 nM final; read-out: Jurkat HPD1_PDL1 IC50. In outline: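 Cell-bound PE-labeled PD-L1-Ig (20 nM final, 1 h) measured by high-content imaging after fixation and Hoechst 33342 counterstain. Compound was applied first for 2 h at 37° C. to Jurkat cells over-expressing human PD-1 in DMEM with 10% FCS.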

T1 sequence (Q15116 25-288): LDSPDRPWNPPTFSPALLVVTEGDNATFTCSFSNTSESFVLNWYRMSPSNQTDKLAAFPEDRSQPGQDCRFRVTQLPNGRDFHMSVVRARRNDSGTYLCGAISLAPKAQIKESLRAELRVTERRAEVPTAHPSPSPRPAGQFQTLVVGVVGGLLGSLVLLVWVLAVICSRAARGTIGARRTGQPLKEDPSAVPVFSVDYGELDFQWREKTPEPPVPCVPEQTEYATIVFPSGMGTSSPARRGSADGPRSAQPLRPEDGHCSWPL

For orientation: IC50 means the concentration that gives 50% inhibition. Turning to `CC[C@@H](C)[C@@H]1NC(=O)[C@H](Cc2ccc(-c3ccccc3)cc2)NC(=O)[C@H](C(C)C)NC(=O)[C@H](Cc2c[nH]c3ccccc23)NC(=O)[C@H](CC(=O)O)NC(=O)[C@H](Cc2ccc(OCC(=O)O)cc2)NC(=O)[C@H](Cc2ccc(OCC(=O)O)cc2)NC(=O)CSC[C@@H](C(=O)N[C@@H](C)C(N)=O)NC(=O)[C@H]([C@@H](C)O)NC(=O)[C@H](C(C)C)NC(=O)[C@H](CC2CCCCC2)NC(=O)[C@H](CCN)NC(=O)[C@@H](CC2CCCCC2)NC(=O)[C@H](CCCN)NC1=O` [Compound 1625] ({CH2CO}-Y(Carboxymethyl)Y(Carboxymethyl)DWV[Bip][aIle][Orn][dCha][Dab][Cha]VTCA-NH2; thioether N-14), the IC50 came out at 35 nM. Under `Cc1cccc(C[C@@H]2NC(=O)[C@H](CC(=O)O)NC(=O)[C@H](Cc3ccc(C(=O)O)cc3)NC(=O)[C@H](Cc3ccncc3)NC(=O)CSC[C@@H](C(=O)N[C@@H](CC(N)=O)C(N)=O)NC(=O)[C@H]([C@@H](C)O)NC(=O)[C@H](C(C)C)NC(=O)[C@H](CC3CCCCC3)NC(=O)[C@H](CCN)NC(=O)[C@@H](CC(C)C)NC(=O)[C@H](CCCN)NC(=O)[C@H](Cc3ccc(OCC(=O)O)cc3)NC(=O)[C@H](Cc3ccc(-c4ccccc4)cc3)NC(=O)[C@H](Cc3ccc(OCC(=O)O)cc3)NC2=O)c1` [Compound 2302] ({CH2CO}-[4Pal][Phe(4-COOH)]D[Phe(3-Me)]Y(Carboxymethyl)[Bip]Y(Carboxymethyl)[Orn][dL][Dab][Cha]VTCN-NH2; thioether N-14) stands 4 nM; under `Cc1cccc(C[C@@H]2NC(=O)[C@H](CC(=O)O)NC(=O)[C@H](Cc3ccc(OCC(=O)O)cc3)NC(=O)[C@H]([C@@H](C)O)NC(=O)CSC[C@@H](C(N)=O)NC(=O)[C@H](CCC(=O)O)NC(=O)[C@H](C(C)C)NC(=O)[C@H](CC3CCCCC3)NC(=O)[C@H](CCN)NC(=O)[C@@H](CC(C)C)NC(=O)[C@H](CCCN)NC(=O)[C@H](Cc3ccc(OCC(=O)O)cc3)NC(=O)[C@H](Cc3ccc(-c4ccccc4)cc3)NC(=O)[C@H](Cc3ccc(OCC(=O)O)cc3)NC2=O)c1` [Compound 1801] ({CH2CO}-TY(Carboxymethyl)D[Phe(3-Me)]Y(Carboxymethyl)[Bip]Y(Carboxymethyl)[Orn][dL][Dab][Cha]VEC-NH2; thioether N-14), 84.4 nM. With `CC(C)C[C@H]1NC(=O)[C@H](CCCN)NC(=O)[C@H](C(C)C)NC(=O)[C@H](Cc2ccc(-c3ccccc3)cc2)NC(=O)[C@H](C(C)C)NC(=O)[C@H](Cc2c[nH]c3ccccc23)NC(=O)[C@H](CC(=O)O)NC(=O)[C@H](Cc2ccc(OCC(=O)O)cc2)NC(=O)[C@H](CN)NC(=O)CSC[C@@H](C(=O)N[C@@H](C)C(N)=O)NC(=O)[C@H](CN)NC(=O)[C@H](C(C)C)NC(=O)[C@H](CC2CCCCC2)NC(=O)[C@H](CCN)NC1=O` [Compound 1738] ({CH2CO}-[Dap]Y(Carboxymethyl)DWV[Bip]V[Orn][dL][Dab][Cha]V[Dap]CA-NH2; thioether N-14) the figure was 8.3 nM; with `CC(C)C[C@H]1NC(=O)[C@H](CCCN)NC(=O)[C@H](C(C)C)NC(=O)[C@H](Cc2ccc(-c3ccccc3)cc2)NC(=O)[C@H](C(C)C)NC(=O)[C@H](Cc2c[nH]c3ccccc23)NC(=O)[C@H](CC(=O)O)NC(=O)[C@H](Cc2ccc(OCC(=O)O)cc2)NC(=O)[C@H](Cc2ccncc2)NC(=O)CSC[C@@H](C(=O)N[C@@H](CCN)C(N)=O)NC(=O)[C@H](C(C)O)NC(=O)[C@H](C(C)(C)O)NC(=O)[C@H](CC2CCCCC2)NC(=O)[C@H](CCN)NC1=O` (stereo partly drawn) [Compound 2629] ({CH2CO}-[4Pal]Y(Carboxymethyl)DWV[Bip]V[Orn][dL][Dab][Cha][Val(3-OH)][Thr(3ξ)]C[Dab]-NH2; thioether N-14), 10.6 nM; with `CC(C)C[C@@H]1NC(=O)[C@H](CCN)NC(=O)[C@@H](CC(C)C)NC(=O)[C@@H](CN)NC(=O)[C@H](C(C)C)NC(=O)[C@H](Cc2ccc(-c3ccccc3)cc2)NC(=O)[C@H](C(C)C)NC(=O)[C@H](Cc2c[nH]c3ccccc23)NC(=O)[C@H](CC(=O)O)NC(=O)[C@H](Cc2ccc(O)cc2)NC(=O)[C@H](CC(N)=O)NC(=O)CSC[C@@H](C(=O)N[C@@H](C)C(N)=O)NC(=O)[C@H]([C@@H](C)O)NC(=O)[C@H](C(C)C)NC1=O` [Compound 1022] ({CH2CO}-NYDWV[Bip]V[dDap][dL][Dab]LVTCA-NH2; thioether N-14), 17.7 nM. Under `Cc1cccc(C[C@@H]2NC(=O)[C@H](CC(=O)O)NC(=O)[C@H](Cc3ccc(OCC(=O)O)cc3)NC(=O)[C@H](CCN)NC(=O)CSC[C@@H](C(=O)N[C@H](C(N)=O)C(C)(C)C(=O)O)NC(=O)[C@H](CO)NC(=O)[C@H](C(C)(C)O)NC(=O)[C@H](CC3CCCCC3)NC(=O)[C@H](CCN)NC(=O)[C@@H](CC(C)C)NC(=O)[C@H](CCCN)NC(=O)[C@H](Cc3ccc(OCC(=O)O)cc3)NC(=O)[C@H](Cc3ccc(-c4ccccc4)cc3)NC(=O)[C@H](Cc3ccc(OCC(=O)O)cc3)NC2=O)c1` [Compound 2071] ({CH2CO}-[Dab]Y(Carboxymethyl)D[Phe(3-Me)]Y(Carboxymethyl)[Bip]Y(Carboxymethyl)[Orn][dL][Dab][Cha][Val(3-OH)]SC[Asp(3,3-Me2)]-NH2; thioether N-14) stands 148 nM.

In the case of `CC(C)C[C@H]1NC(=O)[C@H](CCCN)NC(=O)[C@H](CCC(=O)O)NC(=O)[C@H](Cc2ccc(-c3ccccc3)cc2)NC(=O)[C@H](C(C)C)NC(=O)[C@H](Cc2c[nH]c3ccccc23)NC(=O)[C@H](CC(=O)O)NC(=O)[C@H](Cc2ccncc2)NC(=O)[C@H](Cc2ccccc2)NC(=O)CSC[C@@H](C(=O)N[C@@H](C)C(N)=O)NC(=O)[C@H]([C@@H](C)O)NC(=O)[C@H](C(C)C)NC(=O)[C@H](CC2CCCCC2)NC(=O)[C@H](CCN)NC1=O` [Compound 2196] ({CH2CO}-F[4Pal]DWV[Bip]E[Orn][dL][Dab][Cha]VTCA-NH2; thioether N-14), the IC50 amounted to 11.6 nM. With `CC(C)C[C@H]1NC(=O)[C@H](CCCN)NC(=O)[C@H](Cc2ccc(C(=O)O)cc2)NC(=O)[C@H](Cc2ccc(-c3ccccc3)cc2)NC(=O)[C@H](Cc2ccc(Br)cc2)NC(=O)[C@H](Cc2cccc(C(F)(F)F)c2)NC(=O)[C@H](CC(=O)O)NC(=O)[C@H](Cc2ccc(C(=O)O)cc2)NC(=O)[C@H](CN2CCOCC2)NC(=O)CSC[C@@H](C(=O)N[C@@H](CCN)C(N)=O)NC(=O)[C@H](CCC(=O)O)NC(=O)[C@H](C(C)C)NC(=O)[C@H](CC2CCCCC2)NC(=O)[C@H](CCN)NC1=O` [Example 2750] ({CH2CO}-[Ala(morpholin-4-yl)][Phe(4-COOH)]D[Phe(3-CF3)][Phe(4-Br)][Bip][Phe(4-COOH)][Orn][dL][Dab][Cha]VEC[Dab]-NH2; thioether N-14) the figure was 200 nM; with `CC(C)C[C@H]1NC(=O)[C@H](CCCN)NC(=O)[C@H](CCC(=O)O)NC(=O)[C@H](Cc2ccc(-c3ccccc3)cc2)NC(=O)[C@H](C(C)C)NC(=O)[C@H](Cc2cccc3ccccc23)NC(=O)[C@H](CC(=O)O)NC(=O)[C@H](Cc2ccc(OCC(=O)O)cc2)NC(=O)[C@H](CN)NC(=O)CSC[C@@H](C(=O)N[C@@H](C)C(N)=O)NC(=O)[C@H]([C@@H](C)O)NC(=O)[C@H](C(C)C)NC(=O)[C@H](CC2CCCCC2)NC(=O)[C@H](CCN)NC1=O` [Compound 2146] ({CH2CO}-[Dap]Y(Carboxymethyl)D[1Nal]V[Bip]E[Orn][dL][Dab][Cha]VTCA-NH2; thioether N-14), 10.6 nM.
